Here are results for 1 compound from ChEMBL document CHEMBL4800728, “Data for DCP probe JNJ-54119936” (2021).

The target in test [1] is Nuclear receptor ROR-alpha (Homo sapiens) (UniProt P35398). The experiment in a line: ThermoFluor Binding Assay (RORA). (In DSF a fluorescence change marks the thermal transition of the protein.)
The target in test [2] is Nuclear receptor ROR-beta (Homo sapiens) (UniProt Q92753). The experiment in a line: ThermoFluor Binding Assay (RORB).
Chain of Nuclear receptor ROR-beta (Homo sapiens) (Q92753 whole entry): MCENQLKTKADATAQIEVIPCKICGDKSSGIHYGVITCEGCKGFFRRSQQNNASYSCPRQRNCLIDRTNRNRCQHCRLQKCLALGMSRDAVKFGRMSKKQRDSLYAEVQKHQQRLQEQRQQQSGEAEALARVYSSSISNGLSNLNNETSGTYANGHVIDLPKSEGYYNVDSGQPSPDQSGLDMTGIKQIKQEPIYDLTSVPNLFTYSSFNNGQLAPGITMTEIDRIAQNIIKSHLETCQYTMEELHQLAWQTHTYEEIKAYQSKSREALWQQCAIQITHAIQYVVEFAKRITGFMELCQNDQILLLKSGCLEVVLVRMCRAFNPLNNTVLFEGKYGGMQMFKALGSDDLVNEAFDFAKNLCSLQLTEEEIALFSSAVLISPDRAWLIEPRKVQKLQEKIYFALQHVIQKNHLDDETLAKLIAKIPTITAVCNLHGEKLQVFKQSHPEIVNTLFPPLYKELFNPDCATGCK

Chain of Nuclear receptor ROR-alpha (Homo sapiens) (P35398 whole entry): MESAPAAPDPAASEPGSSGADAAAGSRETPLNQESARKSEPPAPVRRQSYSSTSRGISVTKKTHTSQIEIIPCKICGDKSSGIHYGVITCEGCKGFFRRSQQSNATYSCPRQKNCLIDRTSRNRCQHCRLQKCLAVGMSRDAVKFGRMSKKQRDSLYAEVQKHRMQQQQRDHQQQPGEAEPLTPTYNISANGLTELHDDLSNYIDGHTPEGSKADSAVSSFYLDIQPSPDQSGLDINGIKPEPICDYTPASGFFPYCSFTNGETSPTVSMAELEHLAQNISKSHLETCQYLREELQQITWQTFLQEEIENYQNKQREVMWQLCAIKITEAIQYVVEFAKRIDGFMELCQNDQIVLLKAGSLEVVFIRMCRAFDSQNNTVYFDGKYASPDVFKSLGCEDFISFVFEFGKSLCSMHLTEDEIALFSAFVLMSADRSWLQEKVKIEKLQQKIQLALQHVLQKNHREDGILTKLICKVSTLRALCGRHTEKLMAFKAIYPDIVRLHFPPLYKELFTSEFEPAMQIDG

For `COc1nc2ccc([C@@](O)(c3ccc(Cl)cc3)c3cncn3C)cc2c(Cl)c1Cc1ccc(-n2cccn2)cc1`, the qKD in test [1] was 16.8 µM; in test [2] it was 40 µM.
